From patent US20200068890A1 (Person to Whom the Inventor is Obligated to Assign, priority 2017, published 2020)
Several values for one entry are separate records, joined by “and”; a condition that tells them apart may be missing. Equal entries are not always repeated. Where two headings read alike, the source gives them in different places.

What was measured:
[1] = test system: Enterococcus faecalis 775; test: Broth microdilution MIC; format: cell-based
Procedure: (§1) Assays were carried out by a broth microdilution method using a 96-well plate according to guidelines defined by the European Committee on Antimicrobial Susceptibility Testing as described here. Overnight cultures of strains were grown in tryptic soy broth (TSB) at 37° C. The overnight cultures were diluted to a concentration of 1×10^6 bacteria/ml (OD600=0.01) in TSB media. To each well on 96 well plates, 100 μl of bacterially infected media at a concentration of 1×10^6/ml and compounds at various concentrations were added. An uninfected control (i.e. no bacteria) was also included. The plates were incubated at 37° C. wrapped in parafilm for 20 hrs. The growth was assessed by measuring the absorbance at 600 nm. The minimum inhibitory concentration (MIC) was determined to be the lowest concentration of compound that inhibits visible bacterial growth.

[2] = test system: Enterococcus faecium 12204; test: Broth microdilution MIC; format: cell-based
Procedure: as §1

[3] = test system: Klebsiella pneumoniae 13368; test: Broth microdilution MIC; format: cell-based
Procedure: as §1

[4] = test system: Pseudomonas aeruginosa 13437; test: Broth microdilution MIC; format: cell-based
Procedure: as §1

Klebsiella pneumoniae M6 = test: Broth microdilution MIC; format: cell-based
Procedure: as §1

EMRSA-16 = test: Broth microdilution MIC; format: cell-based
Procedure: as §1

EMRSA-15 = test: Broth microdilution MIC; format: cell-based
Procedure: as §1

MSSA 9144 = test: Broth microdilution MIC; format: cell-based; settings: Staphylococcus aureus
Procedure: as §1

[5] = test system: Acinetobacter baumannii AYE; test: Broth microdilution MIC; format: cell-based
Procedure: as §1

[6] = test system: Pseudomonas aeruginosa PA01; test: Broth microdilution MIC; format: cell-based
Procedure: as §1

[7] = test system: Enterococcus faecalis 12201; test: Broth microdilution MIC; format: cell-based
Procedure: as §1

[8] = test system: Escherichia coli NCTC12923; test: Broth microdilution MIC; format: cell-based
Procedure: as §1

[9] = test system: Acinetobacter baumannii 17978; test: Broth microdilution MIC; format: cell-based
Procedure: as §1

A. thaliana seedlings = test: In planta seedling development and root length on GM/MS media; format: in vivo; settings: for Normalised root / Root Length: individual plants 1-20
Procedure: Gamborg modified/Murashige Skoog (GM/MS) media and soil were prepared as according to Table 6.
A. thaliana seeds were sterilised including a 15 min wash step in 10% (v/v) commercial bleach without the addition of detergents. All plants were grown in a controlled environment room (CER) at 22±5° C. with 16 hrs: 8 hrs light: dark, 50-60% humidity under cool-white fluorescent light. Plants grown on soil were regularly watered and relocated within the CER.
Basta was employed as a positive control at a final recommended concentration of 10 μg/mL (50 μM). Negative controls included 0% (v/v) DMSO (H2O) and 1% (v/v) DMSO (vehicle). Media was poured into 100 mL plates and allowed to set before adding 20 sterilised seeds per plate. Seeds were then stratified at 4° C. for 72 hrs in a dark room prior to relocation into a CER.
The resulting growth plates were monitored daily and allowed to grow in an upright position for up to 14 days post stratification to determine the average root length using ImageJ analysis. Experiments were carried out in triplicates. Results were statistically validated using t-tests employing GraphPad Prism.

For COc1ccc(/C=C2\SC(=O)N(CC(=O)O)C2=O)cc1 [Compound 5, (Z)-2-(5-(4-Methoxybenzylidene)-2,4-dioxothiazolidin-3-yl)acetic Acid], the MIC ([1]; Enterococcus faecalis 775, replicate 1, read-out: MIC #1) was > 64 µg/mL, the MIC ([1]; Enterococcus faecalis 775, replicate 2, read-out: MIC #2) was > 64 µg/mL and the MIC ([1]; Enterococcus faecalis 775, replicate 3, read-out: MIC #3) was > 64 µg/mL. For the same compound, the MIC ([2]; Enterococcus faecium 12204, replicate 1, read-out: MIC #1) was > 64 µg/mL, the MIC ([2]; Enterococcus faecium 12204, replicate 2, read-out: MIC #2) was > 64 µg/mL and the MIC ([2]; Enterococcus faecium 12204, replicate 3, read-out: MIC #3) was > 64 µg/mL. For the same compound, the MIC ([3]; Klebsiella pneumoniae 13368, replicate 1, read-out: MIC #1) was > 64 µg/mL, the MIC ([3]; Klebsiella pneumoniae 13368, replicate 2, read-out: MIC #2) was > 64 µg/mL and the MIC ([3]; Klebsiella pneumoniae 13368, replicate 3, read-out: MIC #3) was > 64 µg/mL. The MIC ([4]; Pseudomonas aeruginosa 13437, replicate 1, read-out: MIC #1) was > 64 µg/mL, the MIC ([4]; Pseudomonas aeruginosa 13437, replicate 2, read-out: MIC #2) was > 64 µg/mL and the MIC ([4]; Pseudomonas aeruginosa 13437, replicate 3, read-out: MIC #3) was > 64 µg/mL. For the same compound, the MIC (Klebsiella pneumoniae M6; Klebsiella pneumoniae M6, replicate 1, read-out: MIC #1) was > 64 µg/mL, the MIC (Klebsiella pneumoniae M6; Klebsiella pneumoniae M6, replicate 2, read-out: MIC #2) was > 64 µg/mL and the MIC (Klebsiella pneumoniae M6; Klebsiella pneumoniae M6, replicate 3, read-out: MIC #3) was > 64 µg/mL. The MIC (EMRSA-16; EMRSA-16, replicate 1, read-out: MIC #1) was > 64 µg/mL, the MIC (EMRSA-16; EMRSA-16, replicate 2, read-out: MIC #2) was > 64 µg/mL and the MIC (EMRSA-16; EMRSA-16, replicate 3, read-out: MIC #3) was > 64 µg/mL. The MIC (EMRSA-15; EMRSA-15, replicate 1, read-out: MIC #1) was > 64 µg/mL, the MIC (EMRSA-15; EMRSA-15, replicate 2, read-out: MIC #2) was > 64 µg/mL and the MIC (EMRSA-15; EMRSA-15, replicate 3, read-out: MIC #3) was > 64 µg/mL. For the same compound, the MIC (MSSA 9144; MSSA 9144, replicate 1, read-out: MIC #1) was > 64 µg/mL, the MIC (MSSA 9144; MSSA 9144, replicate 2, read-out: MIC #2) was > 64 µg/mL and the MIC (MSSA 9144; MSSA 9144, replicate 3, read-out: MIC #3) was > 64 µg/mL. For the same compound, the MIC ([5]; replicate 1, read-out: MIC #1) was > 64 µg/mL, the MIC ([5]; replicate 2, read-out: MIC #2) was > 64 µg/mL and the MIC ([5]; replicate 3, read-out: MIC #3) was > 64 µg/mL. The MIC ([6]; Pseudomonas aeruginosa PA01, replicate 1, read-out: MIC #1) was > 64 µg/mL, the MIC ([6]; Pseudomonas aeruginosa PA01, replicate 2, read-out: MIC #2) was > 64 µg/mL and the MIC ([6]; Pseudomonas aeruginosa PA01, replicate 3, read-out: MIC #3) was > 64 µg/mL. For the same compound, the MIC ([7]; Enterococcus faecalis 12201, replicate 1, read-out: MIC #1) was > 64 µg/mL, the MIC ([7]; Enterococcus faecalis 12201, replicate 2, read-out: MIC #2) was > 64 µg/mL and the MIC ([7]; Enterococcus faecalis 12201, replicate 3, read-out: MIC #3) was > 64 µg/mL. The MIC ([8]; Escherichia coli NCTC12923, replicate 1, read-out: MIC #1) was > 64 µg/mL, the MIC ([8]; Escherichia coli NCTC12923, replicate 2, read-out: MIC #2) was > 64 µg/mL and the MIC ([8]; Escherichia coli NCTC12923, replicate 3, read-out: MIC #3) was > 64 µg/mL. The MIC ([9]; Acinetobacter baumannii 17978, replicate 1, read-out: MIC #1) was > 64 µg/mL, the MIC ([9]; Acinetobacter baumannii 17978, replicate 2, read-out: MIC #2) was > 64 µg/mL and the MIC ([9]; Acinetobacter baumannii 17978, replicate 3, read-out: MIC #3) was > 64 µg/mL. The Normalised root (A. thaliana seedlings; 15.6 μM in GM/MS media) was 82.76 and 96.69 and 73.74 and 70.27 and 71.53 and 139.9 and 115.3 and 146.5 and 77.53 and 88.03 and 73.65 and 65.55 and 78.22 and 74.81 and 104.1 and 65.25 and 3.437 and 81.45 and 65.88 and 72.75, the “Root Length” value (A. thaliana seedlings; 15.6 μM in GM/MS media) was 2.769 cm and 3.235 cm and 2.467 cm and 2.351 cm and 2.393 cm and 4.682 cm and 3.856 cm and 4.902 cm and 2.594 cm and 2.945 cm and 2.464 cm and 2.193 cm and 2.617 cm and 2.503 cm and 3.482 cm and 2.183 cm and 0.115 cm and 2.725 cm and 2.204 cm and 2.434 cm and the Normalised root (A. thaliana seedlings; 31.3 μM in GM/MS media) was 88.38 and 1.793 and 71.56 and 59.48 and 79.48 and 5.948. For the same compound, the “Root Length” value (A. thaliana seedlings; 31.3 μM in GM/MS media) was 2.957 cm and 0.06 cm and 2.394 cm and 1.99 cm and 2.659 cm and 0.199 cm, the Normalised root (A. thaliana seedlings; 62.5 μM in GM/MS media) was 7.413 and 36.02 and 1.315 and 72.21 and 57.81 and 43.67 and 43.88 and 58.91 and 47.85 and 54.64 and 35.81 and 30.88 and 2.78 and 15.18 and 44.24 and 60.59 and the “Root Length” value (A. thaliana seedlings; 62.5 μM in GM/MS media) was 0.248 cm and 1.205 cm and 0.044 cm and 2.416 cm and 1.934 cm and 1.461 cm and 1.468 cm and 1.971 cm and 1.601 cm and 1.828 cm and 1.198 cm and 1.033 cm and 0.093 cm and 0.508 cm and 1.48 cm and 2.027 cm. For the same compound, the Normalised root (A. thaliana seedlings; 125 μM in GM/MS media) was 17.75 and 24.42 and 18.71 and 21.94 and 21.31 and 20.59 and 21.58 and 22.78 and 6.905 and 15.15 and 6.636 and 15.69 and 16.44 (2×) and 2.062 and 14.11 and 1.016 and 19.97 and 13.33 and 0.8668, the “Root Length” value (A. thaliana seedlings; 125 μM in GM/MS media) was 0.594 cm and 0.817 cm and 0.626 cm and 0.734 cm and 0.713 cm and 0.689 cm and 0.722 cm and 0.762 cm and 0.231 cm and 0.507 cm and 0.222 cm and 0.525 cm and 0.55 cm (2×) and 0.069 cm and 0.472 cm and 0.034 cm and 0.668 cm and 0.446 cm and 0.029 cm and the Normalised root (A. thaliana seedlings; 250 μM in GM/MS media) was 3.019 and 3.856 and 2.63 and 2.989 (2×) and 4.693 and 3.049 and 0.3886 and 5.021 and 2.541 and 2.451 and 12.37 and 5.051 and 4.812 and 3.497 and 2.361 and 1.225 and 2.272 and 0.8668 and 0.4185. For the same compound, the “Root Length” value (A. thaliana seedlings; 250 μM in GM/MS media) was 0.101 cm and 0.129 cm and 0.088 cm and 0.1 cm (2×) and 0.157 cm and 0.102 cm and 0.013 cm and 0.168 cm and 0.085 cm and 0.082 cm and 0.414 cm and 0.169 cm and 0.161 cm and 0.117 cm and 0.079 cm and 0.041 cm and 0.076 cm and 0.029 cm and 0.014 cm, the Normalised root (A. thaliana seedlings; 500 μM in GM/MS media) was 0.807 and 0.9565 (3×) and 0.5978 and 2.72 and 0.4185 (2×) and 0.7472 and 0.9266 and 0.2391 and 0.3587 and 0.8668 and 1.375 and 1.315 and 3.348 and 1.853 and 0.9864 and the “Root Length” value (A. thaliana seedlings; 500 μM in GM/MS media) was 0.027 cm and 0.032 cm (3×) and 0.02 cm and 0.091 cm and 0.014 cm (2×) and 0.025 cm and 0.031 cm and 0.008 cm and 0.012 cm and 0.029 cm and 0.046 cm and 0.044 cm and 0.112 cm and 0.062 cm and 0.033 cm. The seedling development (A. thaliana seedlings; concentrations 125 μM and higher) was “did not develop past the point of hypocotyl formation” and the “development and growth of A. thaliana (leaves)” value (A. thaliana seedlings; highest concentrations tested) was “lack of any chlorophyll containing leaves”.
